Experimental data taken from patent US7943602B2 (Pantarhei Bioscience B.V., priority 2002, dated 2011).

Tests used:
[1] = system: immature male Wistar rats; test: In vivo androgenicity, seminal vesicle wet weight after oral dosing for 5 days; design: species or system rat; conditions: for Increase seminal vesicle wet weight: once daily for 5 days, relative to vehicle treated rats; for Relative potency: DHT as reference (100%)
Protocol: Groups of 5 immature male Wistar rats, weighing 50±2 grams, received either vehicle treatment or were administered 30 or 10 mg/kg/day test substance by oral gavage in a dosing volume of 10 ml per kg for 5 consecutive days. During the experiment, animals were housed in cages of 45×23×15 cm and maintained in a controlled temperature of 22-24° C. and humidity (60-80%) environment with 12 hours light/dark cycles. Food (lab diet, rodent diet, PMI nutrition international) and water intake was ad libitum.
The animals were sacrificed 24 hours after receiving the final dose and the wet weight of the seminal vesicle of each animal was recorded and average wet weight per group was calculated. Increase in average seminal vesicle wet weight relative to the average seminal vesicle wet weight of vehicle treated rats was considered indicative for in vivo androgenicity.

Recombinant rat AR = biological target: T1, Recombinant rat AR (Rattus norvegicus, UniProt P15207); test: Competitive steroid binding assay to the androgen receptor with [3H]mibolerone; conditions: for AR-binding Relative affinity: Ki value of DHT set at 100%; for Affinity to AR as compared to DHT and testosterone: orders of magnitude
T1 construct: made in house; host or cells: E. coli
T1 sequence (P15207 1-902): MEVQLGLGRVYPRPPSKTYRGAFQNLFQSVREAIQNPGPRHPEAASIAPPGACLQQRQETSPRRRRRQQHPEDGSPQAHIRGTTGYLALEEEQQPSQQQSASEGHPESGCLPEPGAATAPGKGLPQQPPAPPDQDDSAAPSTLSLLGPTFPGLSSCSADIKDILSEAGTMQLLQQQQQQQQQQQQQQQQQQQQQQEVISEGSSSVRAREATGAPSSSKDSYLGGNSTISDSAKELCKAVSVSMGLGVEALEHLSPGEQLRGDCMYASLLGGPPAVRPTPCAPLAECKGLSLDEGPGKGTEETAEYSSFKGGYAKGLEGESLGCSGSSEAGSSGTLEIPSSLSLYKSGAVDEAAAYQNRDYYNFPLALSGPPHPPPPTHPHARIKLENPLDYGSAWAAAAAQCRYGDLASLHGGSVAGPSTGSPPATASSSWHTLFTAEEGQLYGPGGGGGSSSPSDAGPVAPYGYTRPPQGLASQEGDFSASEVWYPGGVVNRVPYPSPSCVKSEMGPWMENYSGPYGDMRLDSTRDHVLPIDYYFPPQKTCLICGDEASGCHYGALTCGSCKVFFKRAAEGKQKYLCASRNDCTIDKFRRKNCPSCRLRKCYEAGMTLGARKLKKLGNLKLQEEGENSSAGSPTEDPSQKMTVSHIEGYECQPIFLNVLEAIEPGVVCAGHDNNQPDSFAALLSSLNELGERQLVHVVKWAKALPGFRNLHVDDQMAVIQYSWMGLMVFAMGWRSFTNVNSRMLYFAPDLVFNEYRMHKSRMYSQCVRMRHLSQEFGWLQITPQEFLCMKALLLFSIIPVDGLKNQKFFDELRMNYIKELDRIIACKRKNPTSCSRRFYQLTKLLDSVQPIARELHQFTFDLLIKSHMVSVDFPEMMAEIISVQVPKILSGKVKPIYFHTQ
Protocol: Recombinant rat AR was expressed and purified from E. Coli. […] After incubation for 4 h at 4° C., the unbound ligands were removed and the amounts of [^3H]mibolerone bound to the AR was measured. The average amounts of [^3H]mibolerone bound to AR at each concentration of competitor were used to make inhibition curves. IC50 values were subsequently determined by a non-linear, least squares regression analysis.

[2] = biological target: T2, human sex Hormone Binding Globulin (SHBG) (Homo sapiens, UniProt P04278); test: Competitive steroid-binding assay, displacement of [3H]DHT from human SHBG; conditions: [3H]DHT as labeled ligand, compared to DHT, T or DHEA (FIG. 1)
T2 sequence (P04278 30-402): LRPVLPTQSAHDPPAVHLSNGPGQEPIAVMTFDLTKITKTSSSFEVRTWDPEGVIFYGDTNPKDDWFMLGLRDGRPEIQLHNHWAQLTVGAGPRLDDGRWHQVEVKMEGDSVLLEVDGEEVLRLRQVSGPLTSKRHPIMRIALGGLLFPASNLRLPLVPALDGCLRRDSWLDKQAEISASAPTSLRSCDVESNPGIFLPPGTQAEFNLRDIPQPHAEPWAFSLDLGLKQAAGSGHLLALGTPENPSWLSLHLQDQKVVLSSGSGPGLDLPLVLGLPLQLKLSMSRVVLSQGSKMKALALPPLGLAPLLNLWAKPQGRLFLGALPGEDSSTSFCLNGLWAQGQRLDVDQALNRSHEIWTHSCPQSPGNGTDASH
Protocol: Human SHBG was treated for 30 min at room temperature with a dextran-coated charcoal (DCC) suspension in phosphate buffered saline (PBS) to remove any steroid ligand. After centrifugation (2,000×g for 10 min) to sediment the DCC, the supernatant containing the human SHBG was diluted in PBS to a concentration of 1 nM based on its steroid binding capacity.
Duplicate aliquots (100 μl) of this human SHBG solution were then incubated with an equal volume of [^3H]DHT at 10 nM, together with 100 μl of PBS alone or the same amount of PBS containing increasing concentrations of unlabeled steroid ligands as competitors in polystyrene test tubes. After incubation for 1 h at room temperature the reaction mixtures were placed in an ice bath for a further 15 min. […] The unbound ligands adsorbed to DCC were then removed by centrifugation (2,000×g for 15 min at 4° C.), and the amounts of [^3H]labeled DHT bound to SHBG were counted in 2 ml ACS scintillation cocktail using in liquid scintillation spectrophotometer. The average amounts of [^3H] labeled DHT bound to SHBG at each concentration of competitor (B) were expressed as a percentage of the average amounts of [^3H]labeled DHT bound to SHBG in the absence of competitor (T), and were plotted against the concentration of competitor in each assay tube.

SMILES	Increase seminal vesicle wet weight ([1]; oral dose 10 mg/kg/day)	Increase seminal vesicle wet weight ([1]; oral dose 30 mg/kg/day)	Relative potency ([1]; oral dose 10 mg/kg/day)	Relative potency ([1]; oral dose 30 mg/kg/day)	Ki (Recombinant rat AR)	AR-binding Relative affinity (Recombinant rat AR)	Affinity to AR as compared to DHT and testosterone (Recombinant rat AR)	Binding to human SHBG [2]
C[C@]12CC[C@H]3[C@@H](CCC4=CC(=O)CC[C@@]43C)[C@@H]1CC[C@@H]2O [Testosterone, 17β-hydroxy-4-androsten-3-one, reference compound]	41%	47%	–	–	–	–	–	–
C[C@]12CC[C@H]3[C@@H](CCC4=CC(=O)CC[C@@]43C)[C@@H]1[C@@H](O)C[C@@H]2O [15α-hydroxytestosterone, 15α,17β-dihydroxy-4-androsten-3-one]	28%	40%	560%	148%	1820 nM	0.05%	2 to 3 orders of magnitude less affinity	do not bind human SHBG
C[C@]12CC[C@H]3[C@@H](CCC4=CC(=O)CC[C@@]43C)[C@@H]1C[C@H](O)[C@@H]2O [16β-hydroxytestosterone, 16β,17β-dihydroxy-4-androsten-3-one]	–	–	–	–	814 nM	0.12%	2 to 3 orders of magnitude less affinity	–
C[C@]12CCC(=O)C[C@@H]1CC[C@@H]1[C@@H]2CC[C@]2(C)[C@@H](O)CC[C@@H]12 [5α-dihydroxytestosterone, DHT, reference compound]	5%	27%	–	–	–	–	–	–
C[C@]12CC[C@H]3[C@@H](CCC4=CC(=O)CC[C@@]43C)[C@@H]1[C@H](O)C[C@@H]2O [15β-hydroxytestosterone, 15β,17β-dihydroxy-4-androsten-3-one]	20%	35%	400%	130%	557 nM	0.18%	2 to 3 orders of magnitude less affinity	do not bind human SHBG
